Data on 1 molecule can be found in patent US9447063B2, “Disubstituted adamantyl derivative or pharmaceutically acceptable salt thereof, production method for same, and pharmaceutical composition for suppressing cancer metastasis comprising same as active ingredient” (KOREA RESEARCH INSTITUTE OF BIOSCIENCE AND BIOTECHNOLOGY, priority 2012, dated 2016).

The test system of data set [1] is human colorectal carcinoma cell line HCT116. In words: In vivo inhibition of cancer cell proliferation in the mouse by intraperitoneal administration (HCT116 transplant). Further details: species or system Balb/c nude mice. The following applies: 30 mg/kg intraperitoneal; for Weight changes over the administration time: nude mice. How it is done: First, female Balb/c nude mice (6 weeks old) were administered with the compound prepared in Example 2 via intraperitoneal injection. […] One week later, any change in the tumor size was observed by comparing the volume of the first formed tumor and the volume measured one week after. On the last day, the tumor was weighed. […] All the values of each measurement title were examined by t-test to investigate the statistical significance of the values obtained from the non-treated group, the group treated with the compound of Example 2, and the positive control group.

Data set [2] deals with B16F10 melanoma cells. The experiment in a line: Inhibition of metastasis in vivo in the test mouse (luciferase imaging). The following applies: for Weight changes over the administration time: C57BL/6 mice. Also on record: species or system C57BL/6 mice. How it is done: To evaluate the inhibition effect of the compound on metastasis, C57BL/6 mice were transplanted with B16F10 melanoma cells (2×10^6 cells/ml) expressing luciferase via intravenous injection (0.2 ml, 4×10^5 cells/mouse). One hour later, 50 μl of luciferin was administered to each mouse at the concentration of 15 mg/ml via intraperitoneal injection. Then, the compound prepared in Example 2 of the invention was intraperitoneally administered at the concentration of 50 mg/kg 13 times. […] The image of the mouse was photographed every day for 14 days with a live animal imaging system (PHOTON IMAGER, Biospace). On the last day of the experiment, the mouse was sacrificed by using CO2 gas. The lung was extracted from the mouse, and lung metastasis of the skin cancer cells was confirmed. To investigate toxicity, weight and other general symptoms were observed during the experimental period. At this time, all the values of each measurement title were examined by t-test for the statistical significance of the values obtained from the non-treated group, the group treated with the compound of Example 2, and the positive control group. The results are shown in Table 3, Table 4, FIG. 9, and FIG. 10.

For the molecule `CCN(CC)CCNC(=O)c1c(C)[nH]c(/C=C2\C(=O)Nc3ccc(F)cc32)c1C` [sunitinib], the “Inhibition rate of tumor growth (tumor volume)” value is “(0%)” in data set [1] (0 day) and “(31.7%)” in data set [1] (2 days). In addition, the “Tumor volume over the administration time (Vt − Vo)” value in data set [1] (0 day) was 0.0 ± 0.0. Besides, the “Weight changes over the administration time” value in data set [1] (0 day) is recorded as 100.0 ± 0.0%; in data set [1] (2 days), 100.5 ± 1.4%; in data set [1] (4 days), 100.7 ± 2.0%; in data set [1] (7 days), 100.8 ± 3.3%; in data set [2] (0 day), 100.0 ± 0.0%; in data set [2] (2 days), 100.9 ± 2.2%. The “Weight changes over the administration time” value in data set [2] (4 days) is 102.9 ± 2.0%; in data set [2] (7 days) it was 103.0 ± 2.8%; in data set [2] (9 days), 106.0 ± 3.1%; in data set [2] (11 days), 105.4 ± 2.9%; in data set [2] (14 days) it was 107.7 ± 3.3%. The “Tumor weight at final day” value in data set [1] (7 days) is on record as 1064.9 ± 130.9 mg. In addition, the “Image signals over the administration time” value in data set [2] (0 day, live animal imaging) worked out at 857.2 ± 679.3 photons/s/sr; in data set [2] (4 days, live animal imaging, Example 2 50 mg/kg, sunitinib 30 mg/kg), 222.0 ± 146.1 photons/s/sr; in data set [2] (9 days, live animal imaging, Example 2 50 mg/kg, sunitinib 30 mg/kg) it was 47.5 ± 10.7 photons/s/sr; in data set [2] (14 days, live animal imaging, Example 2 50 mg/kg, sunitinib 30 mg/kg), 13084.0 ± 8931.2 photons/s/sr. In addition, the “Inhibition rate of tumor metastasis (image signals)” value in data set [2] (9 days, live animal imaging) is “(19.9%)”. Further, in data set [2] (14 days, extracted lung imaging, Example 2 50 mg/kg, sunitinib 30 mg/kg), the “Image signal at final day” value came to 21738.7 ± 14939.0.
